Experiments:
Format in all cases: in vivo
[1] = test system: Spodoptera littoralis; experiment: Action against Spodoptera littoralis (sprayed soybean plants); conditions: 72 h, 400 ppm spray on young soybean plants, 10 caterpillars in the first stage, 3 days later, read-out: percentage reduction in population and percentage reduction in feeding damage (% activity)
Procedure: Young soybean plants are sprayed with an aqueous emulsion spray mixture comprising 400 ppm of test compound and, after the spray-coating has dried, the plants are populated with 10 caterpillars of Spodoptera littoralis in the first stage and then placed in a plastics container. 3 days later, the percentage reduction in population and the percentage reduction in feeding damage (% activity) are determined by comparing the number of dead caterpillars and the feeding damage on the treated plants with that on untreated plants.

[2] = test system: Heliothis virescens; experiment: Action against Heliothis virescens caterpillars (sprayed soybean plants); conditions: 144 h, 400 ppm spray on young soybean plants, 10 caterpillars in the first stage, evaluation 6 days later, read-out: percentage reduction in population and percentage reduction in feeding damage (% activity)
Procedure: Young soybean plants are sprayed with an aqueous emulsion spray mixture comprising 400 ppm of test compound. After the spray-coating has dried, the soybean plants are populated with 10 caterpillars of Heliothis virescens in the first stage and placed in a plastics container. Evaluation is made 6 days later. The percentage reduction in population and the percentage reduction in feeding damage (% activity) are determined by comparing the number of dead caterpillars and the feeding damage on the treated plants with that on the untreated plants.

[3] = test system: Plutella xylostella; experiment: Action against Plutella xylostella caterpillars (sprayed cabbage plants); conditions: 72 h, 400 ppm spray on young cabbage plants, 10 caterpillars in the third stage, evaluation 3 days later, read-out: percentage reduction in population and percentage reduction in feeding damage (% activity)
Procedure: Young cabbage plants are sprayed with an aqueous emulsion spray mixture comprising 400 ppm of test compound. After the spray-coating has dried, the cabbage plants are populated with 10 caterpillars of Plutella xylostella in the third stage and placed in a plastics container. Evaluation is made 3 days later. The percentage reduction in population and the percentage reduction in feeding damage (% activity) are determined by comparing the number of dead caterpillars and the feeding damage on the treated plants with that on the untreated plants.

Measured: inhibition at 400 ppm

CCn1nnc(-c2ccc(OCCCOc3c(Cl)cc(OCC=C(Cl)Cl)cc3Cl)cc2)n1 [Compound 1.4, 5-(4-{3-[2,6-dichloro-4-(3,3-dichloro-allyloxy)-phenoxy]-propoxy}-phenyl)-2-ethyl-2H-tetrazole]
> 80%: all assays above

ClC(Cl)=CCOc1cc(Cl)c(OCCCOc2ccc(-c3noc(Cl)n3)cc2)c(Cl)c1 [Compound 1.16, 5-chloro-3-(4-{3-[2,6-dichloro-4-(3,3-dichloro-allyloxy)-phenoxy]-propoxy}-phenyl)-[1,2,4]oxadiazole]
> 80%: all assays above

ClC(Cl)=CCOc1cc(Cl)c(OCCCOc2ccc(-c3cc(Cl)on3)cc2)c(Cl)c1 [Compound 1.17, 5-chloro-3-(4-{3-[2,6-dichloro-4-(3,3-dichloro-allyloxy)-phenoxy]-propoxy}-phenyl)-isoxazole]
> 80%: all assays above
